From ChEMBL document CHEMBL1123679, “5-Quinone derivatives of 2'-deoxyuridine 5'-phosphate: inhibition and inactivation of thymidylate synthase, antitumor cell, and antiviral studies” (J Med Chem, 1987)
In brackets after ≈: the same amount, converted by molar mass.

Legend:
[1] = system: L1210; experiment: Ability to inhibit the proliferation or tumor cell growth by 50% of the murine leukemia L1210 cells was determined; type: functional; conditions: Mus musculus, read-out: ID50 (the source's name)
[2] = species on record: Oryctolagus cuniculus; experiment: Minimal inhibitory concentration against HSV-2 (196)-induced cytopathogenicity by 50% in rabbit kidney cell cultures; type: functional
[3] = system: Raji; experiment: Inhibition of human B-cell lymphoblast Raji cell proliferation; type: functional; conditions: read-out: ID50 (the source's name)
[4] = species on record: Oryctolagus cuniculus; experiment: Minimal inhibitory concentration against HSV-2 (G)-induced cytopathogenicity by 50% in rabbit kidney cell cultures; type: functional
[5] = species on record: Oryctolagus cuniculus; experiment: Minimal inhibitory concentration against vesicular stomatitis virus-induced cytopathogenicity by 50% in rabbit kidney cell cultures; type: functional
[6] = Ability to inhibit the proliferation or tumor cell growth by 50% of the human T-cell lymphoblast (Molt/4F) cells was determined; type: functional; conditions: read-out: ID50 (the source's name)
[7] = species on record: Oryctolagus cuniculus; experiment: Minimal inhibitory concentration against HSV-2 (Lyons)-induced cytopathogenicity by 50% in rabbit kidney cell cultures; type: functional
[8] = species on record: Oryctolagus cuniculus; experiment: Minimal inhibitory concentration against HSV-1 (McIntyre)-induced cytopathogenicity by 50% in rabbit kidney cell cultures; type: functional
[9] = species on record: Oryctolagus cuniculus; experiment: Minimal inhibitory concentration against HSV-1 (KOS)-induced cytopathogenicity by 50% in rabbit kidney cell cultures; type: functional
[10] = species on record: Oryctolagus cuniculus; experiment: Minimal inhibitory concentration required to cause a microscopically detectable alteration of normal cell morphology of rabbit kidney cell cultures; type: functional
[11] = species on record: Oryctolagus cuniculus; experiment: Minimal inhibitory concentration against vaccinia virus-induced cytopathogenicity by 50% in rabbit kidney cell cultures; type: functional
[12] = species on record: Oryctolagus cuniculus; experiment: Minimal inhibitory concentration against HSV-1 (F)-induced cytopathogenicity by 50% in rabbit kidney cell cultures; type: functional
[13] = system: Raji; experiment: Inhibition of human B-cell lymphoblast Raji cell proliferation; Value ranges from (10-55.6); type: functional; conditions: read-out: ID50 (the source's name)
[14] = target: Thymidylate synthase (Mus musculus, UniProt P07607); experiment: Ability to inhibit the thymidylate synthase from murine leukemia L1210 cells was determined and expressed as inhibition constant(Ki); type: cell-based
[15] = target: T1, Thymidylate synthase (Lactobacillus casei, UniProt P00469); experiment: Ability to inhibit the thymidylate synthase from Lactobacillus casei was determined and expressed as inhibition constant(Ki); parameters: species or system Lacticaseibacillus casei
T1 sequence (P00469 whole entry): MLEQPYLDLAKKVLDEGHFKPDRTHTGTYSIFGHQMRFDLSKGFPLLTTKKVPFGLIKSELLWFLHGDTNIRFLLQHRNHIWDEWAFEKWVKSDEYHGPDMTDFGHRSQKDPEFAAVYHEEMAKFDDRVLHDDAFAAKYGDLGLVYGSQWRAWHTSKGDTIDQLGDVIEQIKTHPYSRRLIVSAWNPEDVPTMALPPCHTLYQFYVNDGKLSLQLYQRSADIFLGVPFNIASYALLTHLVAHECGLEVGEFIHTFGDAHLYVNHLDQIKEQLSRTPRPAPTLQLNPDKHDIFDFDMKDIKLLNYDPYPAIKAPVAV

[16] = target: T1, Thymidylate synthase; experiment: Ability to inhibit the thymidylate synthase from Lactobacillus casei was determined and expressed as inhibition constant (Ki); parameters: species or system Lacticaseibacillus casei
[17] = species on record: Oryctolagus cuniculus; experiment: Minimal inhibitory concentration required to cause a microscopically detectable alteration of normal cell morphology of rabbit kidney cell culture; type: functional

Chain of Thymidylate synthase (Mus musculus, UniProt P07607) (P07607 whole entry): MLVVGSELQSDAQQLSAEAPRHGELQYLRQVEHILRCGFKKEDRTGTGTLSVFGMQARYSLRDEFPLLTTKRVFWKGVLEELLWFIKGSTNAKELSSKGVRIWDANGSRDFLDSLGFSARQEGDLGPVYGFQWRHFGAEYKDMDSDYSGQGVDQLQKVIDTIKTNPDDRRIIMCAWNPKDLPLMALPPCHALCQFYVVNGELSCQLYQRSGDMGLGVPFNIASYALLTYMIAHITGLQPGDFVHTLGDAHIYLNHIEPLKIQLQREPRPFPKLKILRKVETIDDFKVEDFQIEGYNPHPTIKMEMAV

SMILES | IC50 [1] | MIC [2] | IC50 [3] | MIC [4] | MIC [5] | IC50 [6] | MIC [7] | MIC [8] | MIC [9] | MIC [11] | MIC [12] | Ki [15] | also measured
O=c1[nH]c(=O)n([C@H]2C[C@H](O)[C@@H](CO)O2)cc1[N+](=O)[O-] | 0.003 µg/mL (≈ 0.011 µM) | – | – | – | – | – | – | – | – | – | – | – | –
CC1=C(c2cn([C@H]3C[C@H](O)[C@@H](CO)O3)c(=O)[nH]c2=O)C(=O)c2ccccc2C1=O | 27.4 µg/mL (≈ 68.8 µM) | > 10 µg/mL | 33.5 µg/mL (≈ 84.1 µM) | > 10 µg/mL | > 10 µg/mL | 30.9 µg/mL (≈ 77.6 µM) | > 10 µg/mL | > 10 µg/mL | > 10 µg/mL | > 10 µg/mL | > 10 µg/mL | – | MIC [10]: 40 µg/mL (≈ 100 µM)
COc1c(C)c(-c2cn([C@H]3C[C@H](O)[C@@H](CO)O3)c(=O)[nH]c2=O)c(OC)c2ccccc12 | > 100 µg/mL | – | – | – | – | > 100 µg/mL | – | – | – | – | – | – | IC50 [13]: 55.6 µg/mL (≈ 130 µM)
CC1=C(C)C(=O)C(c2cn([C@H]3C[C@H](O)[C@@H](CO)O3)c(=O)[nH]c2=O)=CC1=O | 40.5 µg/mL (≈ 112 µM) | 70 µg/mL (≈ 193 µM) | > 100 µg/mL | > 100 µg/mL | > 100 µg/mL | 66.8 µg/mL (≈ 184 µM) | 70 µg/mL (≈ 193 µM) | 70 µg/mL (≈ 193 µM) | 150 µg/mL (≈ 414 µM) | > 100 µg/mL | > 100 µg/mL | – | MIC [10]: 200 µg/mL (≈ 552 µM)
COc1cc(-c2cn([C@H]3C[C@H](O)[C@@H](CO)O3)c(=O)[nH]c2=O)c(OC)c(C)c1C | > 100 µg/mL | – | > 100 µg/mL | – | – | > 100 µg/mL | – | – | – | – | – | – | –
CC1=C(c2cn([C@H]3C[C@H](O)[C@@H](COP(=O)(O)O)O3)c(=O)[nH]c2=O)C(=O)c2ccccc2C1=O | – | – | – | – | – | – | – | – | – | – | – | 610 nM | Ki [14]: 1.9 µM
COc1cc(-c2cn([C@H]3C[C@H](O)[C@@H](COP(=O)(O)O)O3)c(=O)[nH]c2=O)c(OC)c(C)c1C | – | – | – | – | – | – | – | – | – | – | – | – | Ki [16]: 3.6 µM
COc1c(C)c(-c2cn([C@H]3C[C@H](O)[C@@H](COP(=O)(O)O)O3)c(=O)[nH]c2=O)c(OC)c2ccccc12 | – | – | – | – | – | – | – | – | – | – | – | 2400 nM | –
COc1c(C)c(C)c(OC)c(-c2cn([C@H]3C[C@H](O)[C@@H](COP(=O)(O)O)O3)c(=O)[nH]c2=O)c1C | – | – | – | – | – | – | – | – | – | – | – | 1400 nM | –
CC1=C(C)C(=O)C(c2cn([C@H]3C[C@H](O)[C@@H](COP(=O)(O)O)O3)c(=O)[nH]c2=O)=CC1=O | – | – | – | – | – | – | – | – | – | – | – | 590 nM | Ki [14]: 6.1 µM
CC1=C(C)C(=O)C(c2cn([C@H]3C[C@H](O)[C@@H](COP(=O)(O)O)O3)c(=O)[nH]c2=O)=C(C)C1=O | – | – | – | – | – | – | – | – | – | – | – | 1300 nM | Ki [14]: 5.1 µM
O=C1C=CC(=O)C(c2cn([C@H]3C[C@H](O)[C@@H](CO)O3)c(=O)[nH]c2=O)=C1 | 35.7 µg/mL (≈ 107 µM) | 70 µg/mL (≈ 209 µM) | > 100 µg/mL | 70 µg/mL (≈ 209 µM) | > 200 µg/mL | > 100 µg/mL | 70 µg/mL (≈ 209 µM) | 150 µg/mL (≈ 449 µM) | 20 µg/mL (≈ 59.8 µM) | 70 µg/mL (≈ 209 µM) | 20 µg/mL (≈ 59.8 µM) | – | –
O=C1C=CC(=O)C(c2cn([C@H]3C[C@H](O)[C@@H](COP(=O)(O)O)O3)c(=O)[nH]c2=O)=C1 | – | – | – | – | – | – | – | – | – | – | – | 2000 nM | –
CC1=C(C)C(=O)C(c2cn([C@H]3C[C@H](O)[C@@H](CO)O3)c(=O)[nH]c2=O)=C(C)C1=O | 65.6 µg/mL (≈ 174 µM) | > 200 µg/mL | 51.1 µg/mL (≈ 136 µM) | > 200 µg/mL | > 100 µg/mL | 29.7 µg/mL (≈ 78.9 µM) | > 200 µg/mL | > 200 µg/mL | > 200 µg/mL | > 200 µg/mL | > 200 µg/mL | – | MIC [10]: > 200 µg/mL
COc1c(C)c(C)c(OC)c(-c2cn([C@H]3C[C@H](O)[C@@H](CO)O3)c(=O)[nH]c2=O)c1C | > 100 µg/mL | – | > 100 µg/mL | – | – | > 100 µg/mL | – | – | – | – | – | – | –
O=c1[nH]c(=O)n([C@H]2C[C@H](O)[C@@H](CO)O2)cc1Br [BROXURIDINE] | – | 10 µg/mL (≈ 32.6 µM) | – | 2 µg/mL (≈ 6.51 µM) | > 400 µg/mL | – | 20 µg/mL (≈ 65.1 µM) | 0.02 µg/mL (≈ 0.0651 µM) | 0.02 µg/mL (≈ 0.0651 µM) | 7 µg/mL (≈ 22.8 µM) | 0.07 µg/mL (≈ 0.228 µM) | – | MIC [10]: > 400 µg/mL
O=c1[nH]c(=O)n([C@H]2C[C@H](O)[C@@H](CO)O2)cc1I [IDOXURIDINE] | – | 1 µg/mL (≈ 2.82 µM) | – | 0.7 µg/mL (≈ 1.98 µM) | > 400 µg/mL | – | 0.7 µg/mL (≈ 1.98 µM) | 0.7 µg/mL (≈ 1.98 µM) | 0.2 µg/mL (≈ 0.565 µM) | 0.7 µg/mL (≈ 1.98 µM) | 0.7 µg/mL (≈ 1.98 µM) | – | MIC [17]: > 400 µg/mL
